Data on 17 compounds can be found in article PMC12303054, “First-in-class inhibitors of Nsp15 endoribonuclease of SARS-CoV-2: Modeling, synthesis, and enzymatic assay of thiazolidinedione and rhodanine analogs” (The Journal of Biological Chemistry, 2025).

Several values for one entry are separate records, joined by “and”; a condition that tells them apart may be missing. Equal entries are not always repeated. Entries after “also recorded” stand apart in the source; their conditions may differ. Where two headings read alike, the source gives them in different places.

The test system of one data set is Nsp15. As to conditions: cited from earlier work.
The target of data set [1] is T1, wildtype SARS-CoV-2 Nsp15 (Severe acute respiratory syndrome coronavirus 2, UniProt P0DTD1). Briefly: biochemical. The conditions noted are these: for IC50: 150 nM enzyme, 1.2 μM substrate, 30 min, 25 °C, mean (SD), duplicates; for change of inhibitory effect relative to parent analog: comparison of IC50 values; for IC50 versus time: IC50 calculated every 5 min for 30 min; for inhibition model: extra sum-of-squares F test; for Vmax: fit parameter of mixed inhibition model for the named inhibitor.

The target of data set [2] is T1, wildtype SARS-CoV-2 Nsp15. Briefly: Nsp15 inhibition in HEPES buffer assay conditions. Format: biochemical. As to conditions: 10 nM Nsp15, 500 nM substrate, 100 μM compound.
The subject of a further data set is SARS-CoV-2. Briefly: SARS-CoV-2 plaque assay in VeroE6/TMPRSS2 cells. The class given is cell-based. As to conditions: for IC50: 24 h infection, MOI = 0.1, read-out: IC50 (viral inhibition, plaque assay).
Another data set is described as follows: in vitro. Format: cell-based. As to conditions: African green monkey, uninfected cells, intracellular ATP. The method, then: (§1) Initially, we grew VeroE6/TMPRSS2 cells overnight in 96-well plates at 10,000 cells per well. The next day, we added increasing concentrations of the tested compound (500, 200, 100, 50, 20, 10, 5, 2, and 1 μM) and DMSO as a control. We let the cells incubate with inhibitors for 24 h. After 24 h, we measured the viability of these cells using the CellTiter-Glo Luminescent Cell Viability Assay (Promega), according to the manufacturer’s instructions. We incubated cells in 100 μl of media with 100 μl of CellTiter-Glo reagent, which contains Ultra-Glo luciferase and the substrate luciferin. The luciferase converts luciferin to luminescent oxyluciferin in the presence of ATP. Viable cells produce more ATP and generate a stronger luminescent signal. We mixed samples by shaking for 10 min and measured luminescence by a VICTOR Nivo Plate Reader (Avantor Science Central).

A further data set relates to SARS-CoV-2 RNA. The class given is cell-based. The conditions noted are these: 24 h infection, MOI = 0.1.
The next data set deals with SARS-CoV-2 Nsp15 (Severe acute respiratory syndrome coronavirus 2, UniProt P0DTD1). Briefly: Reversibility by the dilution method. As to conditions: preincubated 60 min, diluted 1:100. Format: biochemical.
The test system of another data set is VeroE6/TMPRSS2 cells. In words: in vitro. The class given is cell-based. The conditions noted are these: uninfected cells, 24 h, intracellular ATP. The method, then: as §1
The mark [3] stands for this setting: noncompetitive inhibition model, IC50-to-Ki converter, read-out: Predicted Ki.
Setting [4] is: mixed inhibition model fit, mean ± SD.
Setting [5] is: mixed inhibition model fit, mean ± SD, read-out: Ki.
Setting [6] is: Severe acute respiratory syndrome coronavirus 2, VeroE6/TMPRSS2, 24 h.

For the compound `Oc1ccc2ccccc2c1SSc1c(O)ccc2ccccc12` [IPA-3], in the data set on Nsp15, the IC50 is 7 µM and the “inhibition mechanism” value is recorded as “irreversibly inhibited Nsp15”.

For `O=C1NC(=O)C(=CC=Cc2c3ccccc3cc3ccccc23)S1` [KCO035, 5-(3-anthracen-9-yl-allylidene)-thiazolidine-2,4-dione], in data set [1], the “inhibitory effect on Nsp15 activity” value is recorded as “mild inhibitory effect” and the IC50 was determined as 7.21 µM. In data set [1] (100 μM compound), this compound registered an inhibition at 100 µM of approximately 80%. For the same compound, the Ki in data set [1] (setting [3]) was 7.14 µM.

For the compound `O=C1NC(=O)C(=CC=Cc2ccccc2)S1` [KCO036, 5-(3-Phenyl-allylidene)-thiazolidine-2,4-dione], in data set [1], the “inhibitory effect on Nsp15 activity” value is given as “weak inhibitor”, the IC50 was 9.4 µM and the “change of inhibitory effect relative to parent analog” value is “reduced inhibitory effect”. Moreover, in data set [1] (setting [3]), the Ki is 9.33 µM.

Regarding `O=C1NC(=O)C(=CC=Cc2ccnc3ccccc23)S1` [KCO048], in data set [1], the “inhibitory effect on Nsp15 activity” value was “low micromolar concentrations”, the IC50 came out at 1.35 µM and the “change of inhibitory effect relative to parent analog” value is on record as “threefold greater inhibitory effect than KCO231”. Moreover, in data set [1] (setting [3]), the Ki was 1.27 µM.

Consider `O=C1NC(=S)SC1=CC=Cc1c2ccccc2cc2ccccc12` [KCO230, 5-(3-anthracen-9-yl-allylidene)-2-thioxo-thiazolidin-4-one], for which, in data set [1], half-maximal inhibition (IC50) was put at 4.58 µM and the “change of inhibitory effect relative to parent analog” value is “nearly doubled”. Further, the Ki in data set [1] (setting [3]) is 4.5 µM.

For `O=C1NC(=O)C(=CC=Cc2cccc3ccccc23)S1` [KCO231, 5-(3-naphthalen-1-yl-allylidene)-thiazolidine-2,4-dione], in data set [1], inhibition was half-maximal at 4.41 µM (IC50) and the “change of inhibitory effect relative to parent analog” value is “doubled the inhibitory effect”. In addition, the Ki in data set [1] (setting [3]) is 4.34 µM.

Take `O=C1NC(=O)C(=CC=Cc2cncc3ccccc23)S1` [KCO234, 5-(3-isoquinolin-4-yl-allylidene)-thiazolidine-2,4-dione]: in data set [1], the midpoint of inhibition, the IC50, lay at 7.38 µM and the “change of inhibitory effect relative to parent analog” value is reported as “did not enhance inhibitory activity”. Also, the Ki in data set [1] (setting [3]) was 7.3 µM.

As for `O=C1NC(=O)C(=CC=Cc2cccc3ccncc23)S1` [KCO235, 5-(3-isoquinolin-8-yl-allylidene)-thiazolidine-2,4-dione], in data set [1], the IC50 amounted to 4.17 µM and the “change of inhibitory effect relative to parent analog” value is listed as “moderate increase in inhibitory effect”. In data set [1] (setting [3]), the Ki is 4.1 µM.

With `O=C1NC(=O)C(=CC=Cc2ccc3cnccc3c2)S1` [KCO236, 5-(3-isoquinolin-6-yl-allylidene)-thiazolidine-2,4-dione], in data set [1], the “inhibitory effect on Nsp15 activity” value is on record as “submicromolar levels”, the IC50 was determined as 0.932 µM and the “change of inhibitory effect relative to parent analog” value was “moderate increase in inhibitory effect”. In addition, the inhibitory constant (Ki) in data set [1] (setting [3]) is 0.857 µM.

Take `O=C1NC(=S)SC1=CC=Cc1ccnc2ccccc12` [KCO237, 5-(3-quinolin-4-yl-allylidene)-2-thioxo-thiazolidine-4-one]: in data set [1], the “inhibitory effect on Nsp15 activity” value was “submicromolar levels”, the IC50 worked out at 0.304 µM, the “IC50 versus time” value is “consistent through the period of the assay; also recorded: remained constant over the time of the assay” and the “change of inhibitory effect relative to parent analog” value is “fivefold increase in potency compared with KCO048”. In data set [1], the “inhibition model” value is “reversible mixed inhibition model” and the Vmax worked out at 1.57 ± 0.0568 µM/min. For the same compound, the inhibitory constant (Ki) in data set [1] (Cheng–Prusoff equation, noncompetitive inhibition assumed, read-out: predicted Ki) is 0.23 µM. This compound had a α in data set [1] (setting [4]) of 0.343 ± 0.188. In data set [1] (setting [5]), the Ki amounted to 0.318 ± 0.134 µM. For the same compound, the Ki in data set [1] (setting [3]) was 0.229 µM. The “inhibition under HEPES assay conditions” value in data set [2] is reported as “inhibited Nsp15 more potently than tipiracil under these conditions”. In the data set on SARS-CoV-2, the IC50 was 13.9 ± 1.95 µM. Moreover, the IC50 in the data set on SARS-CoV-2 (setting [6]) stood at 14 µM. Moreover, the CC50 at 24 h in “in vitro” is more than 500 µM. Moreover, in the data set with SARS-CoV-2 RNA, the “intracellular SARS-CoV-2 RNA” value is given as “significantly reduced viral RNA in a dose-dependent manner”. Further, the “Nsp15 activity after inhibitor dilution” value on SARS-CoV-2 Nsp15 is listed as “recovered its activity”.

With `CN1C(=O)SC(=CC=Cc2c3ccccc3cc3ccccc23)C1=O` [KCO238, 3-methyl-5-(3-anthracen-9-yl-allylidene)-thiazolidine-2,4-dione], in data set [1], the “inhibitory effect on Nsp15 activity” value is given as “did not inhibit Nsp15 activity; also recorded: lose their inhibitory effect” and the half-inhibitory concentration (IC50) turned out to be 106 µM.

As to `O=C1NC(=S)SC1=CC=Cc1cccc2ccccc12` [KCO249, 5-(3-naphthalen-1-yl-allylidene)-2-thioxo-thiazolidin-4-one], in data set [1], the “inhibitory effect on Nsp15 activity” value is on record as “low micromolar concentrations” and the “change of inhibitory effect relative to parent analog” value is “enhanced its inhibitory effect by sixfold”. Moreover, the Ki in data set [1] (setting [3]) was 1.28 µM.

Consider `CN1C(=O)SC(=CC=Cc2cccc3ccccc23)C1=O` [KCO250, 3-methyl-5-(3-naphthalen-1-yl-allylidene)-thiazolidine-2,4-dione], for which, in data set [1], the “inhibitory effect on Nsp15 activity” value is recorded as “did not inhibit Nsp15 activity; also recorded: lose their inhibitory effect” and the IC50 is more than 1000 µM.

Regarding `O=C1NC(=S)SC1=CC=Cc1cncc2ccccc12` [KCO251, 5-(3-isoquinolin-4-yl-allylidene)-2-thioxo-thiazolidin-4-one], in data set [1], the “inhibitory effect on Nsp15 activity” value is “submicromolar levels”, the IC50 came to 0.931 µM, the “IC50 versus time” value is on record as “consistent through the period of the assay; also recorded: remained constant over the time of the assay” and the “change of inhibitory effect relative to parent analog” value was “eightfold increase in inhibition potency”. In data set [1], the “inhibition model” value is “reversible mixed inhibition model” and the Vmax was 3.38 ± 0.170 µM/min. In data set [1] (setting [4]), this compound showed a α of 0.293 ± 0.280. Besides, the Ki in data set [1] (setting [5]) stood at 0.471 ± 0.33 µM. In data set [1] (setting [3]), the inhibition constant Ki is 0.856 µM. In addition, the “inhibition under HEPES assay conditions” value in data set [2] was “inhibited Nsp15 more potently than tipiracil under these conditions”. Also, the “selectivity index (SI)” value with SARS-CoV-2 (CC50 over IC50) was ~13 and > 10. Further, the IC50 in the data set with SARS-CoV-2 (setting [6]) was found to be 24 µM. The compound also came in with a CC50 at 24 h in “in vitro” of more than 300 µM. Further, the midpoint of cytotoxicity in the data set with VeroE6/TMPRSS2 cells, the CC50, lay at 311 ± 120 µM. Besides, the “intracellular SARS-CoV-2 RNA” value with SARS-CoV-2 RNA is recorded as “significantly reduced viral RNA in a dose-dependent manner”. For the same compound, the “Nsp15 activity after inhibitor dilution” value on SARS-CoV-2 Nsp15 is “recovered its activity”.

For the compound `O=C1C(SCCO)=C(SCCO)C(=O)c2ccccc21` [NSC95397], the IC50 with Nsp15 is 43 µM.

Regarding `N=C1CCCN1Cc1nc(O)nc(O)c1Cl` [Tipiracil, tipiracil, reference compound], in data set [1], the “inhibitory effect on Nsp15 activity” value is “did not inhibit Nsp15 activity” and the IC50 was more than 1000 µM. In addition, the “inhibition under HEPES assay conditions” value in data set [2] was “did inhibit Nsp15 under these conditions but to a lesser extent than KCO237 and KCO251”. In addition, the IC50 with Nsp15 is 7.5 µM.

`Oc1c(Cl)cc(Cl)c(Cl)c1Cc1c(O)c(Cl)cc(Cl)c1Cl` [hexachlorophene]: the IC50 in the data set on Nsp15 was 1 µM.
